“And” between values parts separate entries of the source, which are not always exact repeats. Equal entries are not always repeated. Square brackets hold non-standard residues; d marks the D form. Peptide text beside a SMILES is read from it.

Data set [1] can be described thus: Pharmacokinetics of insulin/TCTP-PTD analog mixtures in normal rats (plasma insulin, ELISA). Type of data set: in vivo, rat. To be noted: for BA (relative bioavailability compared to s.c.) / AUC / Cmax / Tmax: mean ± SEM (n = 5–7); for Cmax / Tmax: ELISA. The procedure:
Rats were fasted for 16 h with access to water, anesthetized by intraperitoneal injection of sodium pentobarbital (60 mg/kg), and placed in the supine position. […] Blood samples (100 µL) were collected from the rat tail 5, 10, 20, 30, 60, 90, 120 and 180 min after dosing and centrifuged at 5000 × g for 25 min to obtain plasma. […] Relative BA was calculated using the following formula: BA(%)=(AUCnasal×Doses.c.)/(AUCs.c×Dosenasal)×100%

For data set [2] the following is noted: D-form compared with L-TCTP-PTD 13; ref Bae et al., 2016; cited from earlier work. From the text:
Therefore, the D-TCTP-PTD analogs could negatively affect insulin delivery through the nasal mucosa.

The test system of data set [3] is BEAS-2B human bronchial epithelial cells. Description: Cellular uptake of FITC-labeled peptides, flow cytometry. Type of data set: cell-based. The following applies: FITC-labeled peptides 5 µM in BEGM, BEAS-2B cells, 30 min, 37 °C, p < .05. The procedure: Cellular uptake assays were carried out to assess the membrane permeability of the new peptides, as previously described (Bae et al., [2016]). Briefly, BEAS-2B human bronchial epithelial cells (American Type Culture Collection [ATCC], Manassas, VA) were maintained in bronchial epithelial growth medium (BEGM; Lonza, Walkersville, MD) and 2 × 10^5 cells/well were seeded in 12-well plates. After 24 h, the cells were washed twice with 1 mL phosphate-buffered saline (PBS) and incubated with FITC-labeled peptides (5 µM) in BEGM for 30 min at 37 °C. The cells were then washed three times with ice-cold PBS to remove cell surface-bound peptides. After trypsinization, the cells were collected by centrifugation (1000 × g for 5 min), washed and finally resuspended in 1 mL ice-cold PBS. The internalized FITC was measured using fluorescence-activated cell sorting on a FACSCalibur flow cytometer (Becton Dickinson, San Jose, CA, USA) at emission and excitation wavelengths of 510 and 530 nm, respectively. Assays were performed in triplicate and repeated at least three times. Flow cytometric analyses were accomplished using WinMDI v.2.8 software.

The conditions of data set [4]: ref Bae & Lee, 2013; cited from earlier work. From the text:
We previously reported that the human translationally controlled tumor protein (TCTP) contains a PTD at its N-terminus (TCTP-PTD) with the amino acid sequence […] al., [2011a]). To improve the penetration of peptides through the cell membrane, we designed variant peptides modified from TCTP-PTD. […] Therefore, the D-TCTP-PTD analogs could negatively affect insulin delivery through the nasal mucosa.

The subject of data set [5] is rats with alloxan-induced diabetes. Description: Pharmacodynamics (blood glucose) of insulin/TCTP-PTD analog mixtures in diabetic rats. Type of data set: in vivo, rat. To be noted: area above blood glucose curve, mean ± SEM (n = 6–8). The procedure:
After 5 days, rats with fasting blood glucose levels in the range of 230-300 mg/dL were selected for the pharmacodynamic studies. […] Then, they were anesthetized by intraperitoneal injections of sodium pentobarbital (60 mg/kg). […] Blood samples were collected from the tip of the rat tail, and blood glucose levels were directly measured using an Accu-Chek glucose meter (Roche Diagnostics, Seoul, Korea). […] The area above the blood glucose curve (AAC) was calculated according to the trapezoid rule. The F% was calculated using the following equation: F%=([…])×100%

[6] abbreviates: insulin 1 IU/kg intranasal plus 0.25 mM PTD.
The mark [7] stands for this setting: plasma insulin AUC0-180 min, insulin 1 IU/kg intranasal plus 0.25 mM PTD.
Setting [8] is: plasma insulin, insulin 1 IU/kg intranasal plus 0.25 mM PTD.
[9] abbreviates: insulin 1 IU/kg intranasal plus 0.1 mM PTD.
Where [10] appears, read: plasma insulin AUC0-180 min, insulin 1 IU/kg intranasal plus 0.1 mM PTD.
Where [11] appears, read: plasma insulin, insulin 1 IU/kg intranasal plus 0.1 mM PTD.

Take `CC[C@@H](C)[C@@H](NC(=O)[C@@H](CC(C)C)NC(=O)[C@@H](C)NC(=O)[C@@H](CCCNC(=N)N)NC(=O)[C@@H](Cc1ccccc1)NC(=O)[C@H](NC(=O)[C@H](NC(=O)[C@@H](CCSC)NC(C)=O)[C@H](C)CC)[C@H](C)CC)C(=O)N[C@H](CO)C(=O)N[C@H](Cc1c[nH]cn1)C(=O)N[C@H](CCCCN)C(=O)N[C@H](CCCCN)C(N)=O` [D-TCTP-PTD 13] (Ac-[dM][dI][dI][dF][dR][dA][dL][dI][dS][dH][dK][dK]-NH2): the “BA (relative bioavailability compared to s.c.)” value in data set [1] (setting [6]) was 6.8% and 6.8 ± 2.0%. Also, the AUC in data set [1] (setting [7]) was found to be 645.5 ± 191.2 μU/mL·min. Further, in data set [1] (setting [8]), the Cmax stood at 13.8 ± 4.2 μU/mL and the Tmax came to 14.0 ± 2.4 min. In addition, the “antigen (ovalbumin) carrier potency through nasal mucosa (in words)” value in data set [2] is “more potent antigen carrier”.

In the case of `CC[C@H](C)[C@H](NC(=O)[C@H](CC(C)C)NC(=O)[C@H](CC(C)C)NC(=O)[C@H](CCCNC(=N)N)NC(=O)[C@H](Cc1ccccc1)NC(=O)[C@@H](NC(=O)[C@@H](NC(=O)[C@H](CCSC)NC(C)=O)[C@@H](C)CC)[C@@H](C)CC)C(=O)N[C@@H](CO)C(=O)N[C@@H](Cc1c[nH]cn1)C(=O)N[C@@H](CCCCN)C(=O)N[C@@H](CCCCN)C(N)=O` [L-TCTP-PTD 13M1] (Ac-MIIFRLLISHKK-NH2), the “cellular uptake capacity compared with L-TCTP-PTD 13 (in words)” value in data set [3] was “lower”. The “BA (relative bioavailability compared to s.c.)” value is 20.9 ± 1.4% in data set [1] (setting [9]) and 10.1 ± 2.4% in data set [1] (setting [6]). In addition, the AUC in data set [1] (setting [10]) came to 1966.3 ± 130.5 μU/mL·min; in data set [1] (setting [7]), 951.7 ± 225.9 μU/mL·min. Further, the results for the Cmax in data set [1] (setting [11]) and in data set [1] (setting [8]) were 47.1 ± 3.1 μU/mL and 15.0 ± 3.3 μU/mL, respectively. Further, the Tmax was determined as 10.0 ± 0.0 min in data set [1] (setting [11]) and 13.3 ± 2.1 min in data set [1] (setting [8]).

With `CC[C@H](C)[C@H](NC(=O)[C@H](CC(C)C)NC(=O)[C@H](C)NC(=O)[C@H](CCCNC(=N)N)NC(=O)[C@H](Cc1ccccc1)NC(=O)[C@@H](NC(=O)[C@@H](NC(=O)[C@H](CCSC)NC(C)=O)[C@@H](C)CC)[C@@H](C)CC)C(=O)N[C@@H](CO)C(=O)N[C@@H](Cc1c[nH]cn1)C(=O)N[C@@H](CCCCN)C(=O)N[C@@H](CCCCN)C(N)=O` [L-TCTP-PTD 13] (Ac-MIIFRALISHKK-NH2), the “BA (relative bioavailability compared to s.c.)” value was 9.0 ± 1.4% in data set [1] (setting [9]); 22.1% and 22.1 ± 2.5% in data set [1] (setting [6]). For the same compound, the AUC in data set [1] (setting [10]) is given as 847.1 ± 132.9 μU/mL·min; in data set [1] (setting [7]), 2081.7 ± 238.6 μU/mL·min. In addition, the results for the Cmax in data set [1] (setting [11]) and in data set [1] (setting [8]) were 26.4 ± 7.8 μU/mL and 53.4 ± 6.7 μU/mL, respectively. The figures for the Tmax in data set [1] (setting [11]) and in data set [1] (setting [8]) were 12.0 ± 2.0 min and 10.0 ± 0.0 min, respectively. Besides, in data set [4], the “nasal absorption of insulin compared to insulin alone (in words)” value was “enhanced nasal absorption”.

For “Insulin: Human recombinant insulin (27.5 IU/mg), Sigma-Aldrich”, the AUC in data set [1] (AUC0-180 min, insulin s.c., 0.25 IU/kg) is 2356.4 ± 106.2 μU/mL·min; in data set [1] (AUC0-180 min, trapezoid rule, insulin alone, intranasal, 5 IU/kg) it was 180.5 ± 37.6 μU/mL·min. In addition, the “plasma insulin after intranasal insulin alone (in words)” value in data set [1] (insulin 1 IU/kg intranasal, alone) was “scarcely detectable”. For the same compound, the Cmax in data set [1] (insulin s.c., 0.25 IU/kg) was found to be 40.9 ± 0.9 μU/mL. The “AAC0–240 min” value in data set [5] (insulin alone, intranasal, 2 IU/kg) was 721.0 ± 478.2 % glucose/min; in data set [5] (insulin s.c., 1 IU/kg) it was 11354.3 ± 507.8 % glucose/min.

The record behind these values is publication PMC6058520 (Drug Delivery, 2018).
